In patent publication US5821243A, “Compounds compositions and methods for treating influenza” (priority 1997, dated 1998):
Structures can show the parent of a compound that is named as a salt. Where two headings read alike, the source gives them in different places.

What was measured:
[1] = test system: influenza; assay: Potency against influenza (test not specified)
[2] = molecular target: influenza A/WSN virus transcriptase (Influenza A virus, UniProt P03427+P03430+P15659); assay: biochemical; conditions: 45 minutes at 31° C, 1% DMSO; read-out: IC50, concentration required to achieve 50% inhibition of influenza A/WSN virus transcriptase activity
[3] = molecular target: influenza virus cleavage of cap 1 RNA (Influenza A virus, UniProt P03427+P15659); assay: Assay for cleavage of cap 1 AIMV RNA4 by influenza virus; format: biochemical; conditions: read-out: IC50, 50% inhibition of influenza virus cleavage of cap 1 RNA
[4] = test system: MDCK cells; assay: Cell growth assay (MTT) in MDCK cells; format: cell-based, canine; conditions: Canis lupus familiaris, 2-3 days, read-out: IC50, concentration required to achieve a 50% reduction of optical density (cell growth)
Method: Effects of the pyridazine derivatives of the invention on cell growth were determined in MDCK cells in 96 well plates by a tetrazolium-based calorimetric method (R. Pauwels et al., J. Virol. Methods, 20, 309-321 (1988)). This assay detects the in situ reduction of 3-(4,5-dimethylthiazol-2-yl)-2,5-diphenyltetrazolium bromide (MTT) by viable cells. Approximately 1×10^4 cells were seeded per well and incubated with drug-containing growth media for 2-3 days (3-4 cell doublings). The drug concentration resulting in a reduction of optical density by 50% was determined.

[5] = test system: influenza A/WSN virus; assay: Plaque reduction in MDCK cells, influenza A/WSN
Method: (§1) Compounds were evaluated for antiviral activity against influenza A/WSN, A/Victoria and B/Lee viruses by plaque reduction in Madin Darby canine kidney (MDCK) cells. Duplicate monolayers of MDCK cells in 6 well plates were washed free of protein-containing media, infected with 50-100 plaque-forming units of virus (0.4 ml. volume), and incubated at 37° C. for 60 minutes. After aspiration of the virus inoculum, a 0.6% agarose overlay (3 ml.) containing Eagle minimal essential media, trypsin (8 μg/ml.), and the appropriate drug dilution (final concentration of 1% DMSO) was added to the cell monolayer. Plates were incubated at 370° C. in a humidified atmosphere of 5% CO2 in air. After 48 hours, monolayers were fixed with glutaraldehyde, stained with 0.1% crystal violet and the plaques were counted. The percentage of plaque inhibition relative to the infected control (no drug) plates were calculated for each drug concentration and the 50% inhibitory concentration (IC50) was determined.

[6] = test system: influenza A/Victoria virus; assay: Plaque reduction in MDCK cells, influenza A/Victoria
Method: as §1

[7] = test system: influenza B/Lee virus; assay: Plaque reduction in MDCK cells, influenza B/Lee; conditions: read-out: IC50, […], B/Lee, 48 hours
Method: as §1

[8] = MDCK, 48 h, read-out: IC50, […], A/WSN, MDCK cells, 48 hours
[9] = MDCK, 48 h, read-out: IC50, […], A/Victoria, MDCK cells, 48 hours
[10] = read-out: IC50, […], A/WSN, MDCK cells, 48 hours

## CC1=NN(c2ccc(C)c(S(N)(=O)=O)c2)C(=O)C(=O)C1=O [2-methyl-5-(6-methyl-3,4,5-trioxo-2H,3H,4H,5H-pyridazinyl)benzenesulfonamide]
[1]
  potency against influenza: significant potency

## CC1=NN(c2ccc(C(N)=O)cc2)C(=O)C(=O)C1=O [4-(6-methyl-3,4,5-trioxo-2H,3H,4H,5H-pyridazinyl)benzenecarboxamide]
[1]
  potency against influenza: significant potency

## CC1=NN(c2ccc3c(c2)S(=O)(=O)NC3=O)C(=O)C(=O)C1=O [6-(6-methyl-3,4,5-trioxo-2H,3H,4H,5H-pyridazinyl)-1,1-dioxo-1,2-dihydro-1λ^6-benz<d>isothiazol-3-one]
[1]
  potency against influenza: significant potency

## CC1=NN(c2ccc(C(=O)O)cc2C)C(=O)C(=O)C1=O [Example 1, 3-methyl-4-(6-methyl-3,4,5-trioxo-2H,3H,4H,5H-pyridazinyl)benzoic acid]
[2]
  IC50: 100 nM
[3]
  IC50: 200 nM
[4]
  IC50: > 200 µM
[5]; [8]
  IC50: 50 µM
[6]; [9]
  IC50: 90 µM

## CC1=NN(c2ccc(C(=O)O)cc2C)C(=O)C(=O)C1=O [Example 2, Sodium Salt of 3-methyl-4-(6-methyl-3,4,5,-trioxo-2H,3H,4H,5H-pyridazinyl)benzoic acid]
[5]; [10]
  IC50: 100 µM
[7]
  IC50: > 200 µM

## CC1=NN(c2ccc(C(=O)O)c(Cl)c2)C(=O)C(=O)C1=O [Example 3, 2-chloro-4-(6-methyl-3,4,5-trioxo-2H,3H,4H,5H-pyridazinyl)benzoic acid]
[5]; [8]
  IC50: 16 µM
[6]; [9]
  IC50: 50 µM

## CC1=NN(c2ccc(S(N)(=O)=O)cc2)C(=O)C(=O)C1=O [Example 4, 4-(6-methyl-3,4,5-trioxo-2H,3H,4H,5H-pyridazinyl)benzene sulfonamide]
[2]
  IC50: 1000 nM
[3]
  IC50: 2000 nM
[4]
  IC50: > 100 µM
[5]; [8]
  IC50: 8 µM
[6]; [9]
  IC50: 8 µM

## CC1=NN(c2ccc(S(N)(=O)=O)cc2)C(=O)C(=O)C1=O [Example 5, Sodium Salt of 4-(6-methyl-3,4,5-trioxo-2H,3H,4H,5H-pyridazinyl)benzoic sulfonamide]
[5]; [10]
  IC50: 8 µM
[7]
  IC50: 30 µM
[6]; read-out: IC50, […], A/Victoria, MDCK cells, 48 hours
  IC50: 11 µM

## CC1=NN(c2ccc(-c3nnn[nH]3)cc2)C(=O)C(=O)C1=O [Example 6, 2-(4-tetrazolylphenyl) 2,3,4,5-tetrahydro-6-methyl-pyridazine-3,4,5-trione]
[2]
  IC50: 200 nM
[5]; [8]
  IC50: 1 µM
[6]; [9]
  IC50: 2 µM

## CC1=NN(c2ccc(-c3nn[nH]n3)cc2)C(=O)C(=O)C1=O [Example 7, Sodium Salt of 2-(4-tetrazolylphenyl) 2,3,4,5-tetrahydro-6-methyl-pyridazine-3,4,5-trione]
[5]; [8]
  IC50: 2 µM

## CC1=NN(c2ccc3[nH]ncc3c2)C(=O)C(=O)C1=O [Example 8, 5-indazolyl-2,3,4,5-tetrahydro-6-methyl-pyridazine-3,4,5-trione]
[5]; [8]
  IC50: 50 µM

## CC1=NN(c2ccc3[nH]nnc3c2)C(=O)C(=O)C1=O [Example 9, 5-benzotriazolyl-2,3,4,5-tetrahydro-6-methyl-pyridazine-3,4,5-trione]
[5]; [8]
  IC50: 20 µM

## CC1=NN(c2ccc(S(=O)(=O)Nc3cccnc3)cc2)C(=O)C(=O)C1=O [N-(3-pyridyl)-4-(6-methyl-3,4,5-trioxo-2H,3H,4H,5H-pyridazinyl)benzenesulfonamide]
[1]
  potency against influenza: significant potency

## CC(=O)NS(=O)(=O)c1ccc(N2N=C(C)C(=O)C(=O)C2=O)cc1 [N-acetyl-4-(6-methyl-3,4,S-trioxo-2H,3H,4H,5H-pyridazinyl)benzenesulfonamide]
[1]
  potency against influenza: significant potency

## CNS(=O)(=O)c1ccc(N2N=C(C)C(=O)C(=O)C2=O)cc1 [N-methyl-4-(6-methyl-3,4,5-trioxo-2H,3H,4H,5H-pyridazinyl)benzenesulfonamide]
[1]
  potency against influenza: significant potency

## CNS(=O)(=O)c1ccc(Cl)c(N2N=C(C)C(=O)C(=O)C2=O)c1 [N-methyl-4-chloro-3-(6-methyl-3,4,5-trioxo-2H,3H,4H,5H-pyridazinyl)benzenesulfonamide]
[1]
  potency against influenza: significant potency

## CC1=NN(c2ccc(S(=O)(=O)Nc3ccccc3)cc2)C(=O)C(=O)C1=O [N-phenyl-4-(6-methyl-3,4,5-trioxo-2H,3H,4H,5H-pyridazinyl)benzenesulfonamide]
[1]
  potency against influenza: significant potency
